These results are taken from patent US10894052B2, “Heterocyclic inhibitors of ATR kinase” (Board of Regents, The University of Texas System, priority 2018, dated 2021).

One may read the IC50 as the concentration that gives 50% inhibition.

For one assay, the target named is ATR/ATRIP complex (Homo sapiens (Human), UniProt Q13535). In words: ATR/ATRIP enzymatic assay (Caliper-based). It counts as biochemical. The following applies: ATR/ATRIP enzyme; FAM-labeled RAD17 peptide, ATP. As for the experimental part: (§1) The ability of the compounds of Formula I to inhibit the catalytic activity of the ATR/ATRIP complex was measured in a Caliper-based assay, and in HT-29 cells in an Alphascreen assay, following the ATR-mediated phosphorylation of CHK1, described below.
Human full-length FLAG-TEV-ATR and His6-ATRIP were co-expressed in HEK293 cells. […] The sample was loaded into a column, and then washed with buffer A three times. Protein was subsequently eluted with 2 ml of buffer B (buffer A+200 μg/ml 3×FLAG peptide).
The ability of new chemical matter to inhibit the ATR catalytic activity in this ATR/ATRIP complex was assessed using a Caliper-based assay. A 2× enzyme solution (i.e., 4 nM enzyme) was prepared using 1× Kinase Reaction Buffer (25 mM HEPES pH 8, 0.0055% Brij-35, 10 mM MnCl2, and 1 mM DTT). […] 10 μL of the 2× enzyme solution was transferred to an assay plate containing 60 nL of test compound (from a 3× serial dilution) in 100% DMSO. Following a 30-min incubation at 28° C., 10 μL of the 2× peptide solution was then transferred to the same assay plate. The reaction incubated at 28° C. for 6 h. After adding 30 μL stop buffer (100 mM HEPES pH 7.5, 0.015% Brij-35, 0.2% Coating-3 Reagent (PerkinElmer, catalog #PN760050), and 50 mM EDTA), data were collected on a Caliper instrument. Conversion values were converted to inhibition values via the following equation: % inhibition=(max−conversion)/(max−min)*100, wherein “max” corresponds to the DMSO control, and “min” corresponds to the low control. IC50 values were calculated using the following equation in XLFit: Y=Bottom+(Top−Bottom)/1+(IC50/X)^HillSlope).

The subject of assay [1] is ATR-driven phosphorylation of Chk1 kinase at Serine 345 in HT-29 cells. In words: pCHK1 cellular assay (CHK1 p-Ser345 AlphaScreen SureFire). Type of assay: cell-based. The following applies: Homo sapiens; HT-29 colorectal adenocarcinoma cells; 4-nitroquinoline N-oxide 12 μM; read-out: Cell IC50 (pCHK1). The protocol: as §1
Cellular IC50 for the inhibitors of ATR described herein were measured in HT-29 colorectal adenocarcinoma cells.
The microplate was incubated overnight (approximately 20 hours) at 37° C. with 5% CO2 and ambient O2. Stock solutions of the test compounds were prepared in 100% DMSO (Sigma, Catalog #D2650) and serially diluted 1:3 using 100% DMSO. Compounds were additionally diluted 1:33 in culture medium, and 10 μL/well were transferred to the tissue culture plate. Following the compound addition, the microplate was incubated at 37° C. for 90 minutes. […] The cells were then washed with PBS and lysed using 10 μL/well […]® Kit lysis buffer diluted to 1× in water (PerkinElmer Catalog #TGRCHK1S50K), with mixing on an orbital shaker at 500 rpm for 20 min at room temperature. Lysates were frozen at −20 OC overnight.
The pCHK1 ALPHASCREEN® signal was measured using an ENVISION® plate reader (PerkinElmer). IC50 values were calculated using a four-parameter logistic curve fit using Genedata Screener software. Percent of control for each compound concentration was calculated by the following formula: 100*(Compound−Min)/(Max−Min), where “Max” is the high control, DMSO, and “Min” is the low control, 5 μM ATR inhibitor.
On the technique in general: Alpha assays give light when donor and acceptor beads are brought close together.

ATR/ATRIP complex, sequence (Q13535 whole entry): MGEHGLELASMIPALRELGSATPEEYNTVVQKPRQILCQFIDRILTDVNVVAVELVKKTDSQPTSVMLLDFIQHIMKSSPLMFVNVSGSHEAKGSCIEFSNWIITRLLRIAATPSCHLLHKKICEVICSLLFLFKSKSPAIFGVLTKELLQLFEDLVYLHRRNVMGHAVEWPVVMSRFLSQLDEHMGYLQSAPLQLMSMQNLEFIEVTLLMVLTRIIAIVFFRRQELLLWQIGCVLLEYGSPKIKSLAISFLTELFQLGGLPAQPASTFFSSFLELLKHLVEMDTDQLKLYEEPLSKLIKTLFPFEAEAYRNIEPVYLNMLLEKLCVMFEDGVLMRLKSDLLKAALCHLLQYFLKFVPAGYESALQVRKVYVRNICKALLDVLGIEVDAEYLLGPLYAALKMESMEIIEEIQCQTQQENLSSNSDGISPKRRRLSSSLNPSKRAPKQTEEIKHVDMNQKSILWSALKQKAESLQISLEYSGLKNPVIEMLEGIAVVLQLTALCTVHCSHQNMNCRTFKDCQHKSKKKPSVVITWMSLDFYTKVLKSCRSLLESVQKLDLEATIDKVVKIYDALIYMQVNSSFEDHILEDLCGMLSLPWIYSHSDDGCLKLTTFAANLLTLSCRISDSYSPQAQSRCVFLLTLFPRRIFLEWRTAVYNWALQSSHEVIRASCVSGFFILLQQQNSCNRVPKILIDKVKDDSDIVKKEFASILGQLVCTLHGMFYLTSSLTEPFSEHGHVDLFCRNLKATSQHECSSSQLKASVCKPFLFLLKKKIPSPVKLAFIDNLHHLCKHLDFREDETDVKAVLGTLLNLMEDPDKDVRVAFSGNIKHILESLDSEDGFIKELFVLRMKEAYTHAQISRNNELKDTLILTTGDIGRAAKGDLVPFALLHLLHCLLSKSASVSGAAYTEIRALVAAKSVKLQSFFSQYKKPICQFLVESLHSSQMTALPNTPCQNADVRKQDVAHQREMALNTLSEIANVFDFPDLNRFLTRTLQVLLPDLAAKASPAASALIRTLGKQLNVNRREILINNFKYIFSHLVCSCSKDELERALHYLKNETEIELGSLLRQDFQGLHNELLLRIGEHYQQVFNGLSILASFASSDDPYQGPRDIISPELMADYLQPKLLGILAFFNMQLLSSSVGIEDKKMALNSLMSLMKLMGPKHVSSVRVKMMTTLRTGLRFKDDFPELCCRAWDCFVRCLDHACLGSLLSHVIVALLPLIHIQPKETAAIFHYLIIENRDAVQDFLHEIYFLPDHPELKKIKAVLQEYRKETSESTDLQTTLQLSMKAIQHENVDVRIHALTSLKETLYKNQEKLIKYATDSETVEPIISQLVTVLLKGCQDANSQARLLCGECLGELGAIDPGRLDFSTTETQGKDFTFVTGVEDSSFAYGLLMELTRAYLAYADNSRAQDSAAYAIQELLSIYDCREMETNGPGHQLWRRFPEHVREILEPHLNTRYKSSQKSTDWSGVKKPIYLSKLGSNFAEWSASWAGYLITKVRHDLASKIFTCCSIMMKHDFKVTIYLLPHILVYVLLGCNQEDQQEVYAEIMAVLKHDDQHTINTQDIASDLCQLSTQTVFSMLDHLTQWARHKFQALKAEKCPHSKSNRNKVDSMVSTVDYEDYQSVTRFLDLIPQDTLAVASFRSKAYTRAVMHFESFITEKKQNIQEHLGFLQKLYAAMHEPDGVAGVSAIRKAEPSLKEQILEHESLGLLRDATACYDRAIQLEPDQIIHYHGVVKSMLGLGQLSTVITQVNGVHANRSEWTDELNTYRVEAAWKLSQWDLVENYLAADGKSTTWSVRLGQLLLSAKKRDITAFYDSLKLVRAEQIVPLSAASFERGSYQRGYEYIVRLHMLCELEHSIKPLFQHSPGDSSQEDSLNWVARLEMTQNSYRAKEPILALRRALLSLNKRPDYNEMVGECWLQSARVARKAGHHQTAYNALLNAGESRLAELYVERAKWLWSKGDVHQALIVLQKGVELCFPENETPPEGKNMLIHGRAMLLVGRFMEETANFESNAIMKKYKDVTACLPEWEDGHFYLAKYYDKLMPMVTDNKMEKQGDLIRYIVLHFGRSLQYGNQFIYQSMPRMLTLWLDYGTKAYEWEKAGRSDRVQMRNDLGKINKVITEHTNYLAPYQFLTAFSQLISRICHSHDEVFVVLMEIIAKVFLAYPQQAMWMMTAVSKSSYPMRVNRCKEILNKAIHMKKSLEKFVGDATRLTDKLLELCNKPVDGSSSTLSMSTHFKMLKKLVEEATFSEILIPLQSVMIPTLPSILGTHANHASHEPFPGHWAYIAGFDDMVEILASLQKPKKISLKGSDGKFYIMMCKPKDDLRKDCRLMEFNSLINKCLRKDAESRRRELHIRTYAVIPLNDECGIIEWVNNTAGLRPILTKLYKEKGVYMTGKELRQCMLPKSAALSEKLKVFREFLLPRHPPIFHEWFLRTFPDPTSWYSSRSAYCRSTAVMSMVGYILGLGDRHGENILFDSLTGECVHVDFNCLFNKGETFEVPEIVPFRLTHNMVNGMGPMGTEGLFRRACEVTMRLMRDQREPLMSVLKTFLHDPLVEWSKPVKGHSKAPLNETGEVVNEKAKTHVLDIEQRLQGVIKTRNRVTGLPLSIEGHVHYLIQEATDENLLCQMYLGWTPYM
ATR/ATRIP complex, sequence (Q8WXE1 whole entry partner): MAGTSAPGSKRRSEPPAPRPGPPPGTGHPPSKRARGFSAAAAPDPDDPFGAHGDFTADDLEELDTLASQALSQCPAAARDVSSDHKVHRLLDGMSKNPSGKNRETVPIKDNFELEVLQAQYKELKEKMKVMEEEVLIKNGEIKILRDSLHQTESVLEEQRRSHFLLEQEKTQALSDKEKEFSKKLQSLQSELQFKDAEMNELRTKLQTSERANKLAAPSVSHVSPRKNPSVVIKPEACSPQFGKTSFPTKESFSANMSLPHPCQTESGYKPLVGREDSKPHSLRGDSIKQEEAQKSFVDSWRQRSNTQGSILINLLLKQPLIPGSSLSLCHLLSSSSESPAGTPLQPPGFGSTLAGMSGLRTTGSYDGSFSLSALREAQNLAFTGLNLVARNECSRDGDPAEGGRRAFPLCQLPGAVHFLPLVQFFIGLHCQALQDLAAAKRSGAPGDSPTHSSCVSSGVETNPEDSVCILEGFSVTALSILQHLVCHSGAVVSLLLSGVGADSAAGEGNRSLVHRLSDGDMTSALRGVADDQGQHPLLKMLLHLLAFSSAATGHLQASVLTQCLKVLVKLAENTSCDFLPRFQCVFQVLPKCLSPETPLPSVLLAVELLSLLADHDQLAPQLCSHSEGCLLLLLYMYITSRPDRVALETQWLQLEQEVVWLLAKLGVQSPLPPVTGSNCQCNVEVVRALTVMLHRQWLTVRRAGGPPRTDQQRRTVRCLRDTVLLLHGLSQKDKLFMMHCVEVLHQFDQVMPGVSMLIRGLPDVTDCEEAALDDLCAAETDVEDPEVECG

As to `C[C@@H]1COCCN1c1cc(N=S(C)(=O)C2COC2)nc(-c2cncc3[nH]ccc23)c1` (stereo partly drawn) [Example 24, methyl((4-((R)-3-methylmorpholino)-6-(1H-pyrrolo[2,3-c]pyridin-4-yl)pyridin-2-yl)imino)(oxetan-3-yl)-λ^6-sulfanone], the IC50 amounted to 0.024 µM on ATR/ATRIP complex and 0.47 µM in assay [1].

As to `C[C@@H]1COCCN1c1cc(N=S2(=O)CCC2)nc(-c2ccnc3[nH]ccc23)c1` [Example 25, (R)-1-((4-(3-methylmorpholino)-6-(1H-pyrrolo[2,3-b]pyridin-4-yl)pyridin-2-yl)imino)-1-λ^6-thietane 1-oxide], the IC50 against ATR/ATRIP complex was 0.009 µM; in assay [1], 0.767 µM.

For the compound `C[C@@H]1COCCN1c1cc(N=S2(=O)CCCC2)nc(-c2ccnc3[nH]ccc23)c1` [Example 26, (R)-1-((4-(3-methylmorpholino)-6-(1H-pyrrolo[2,3-b]pyridin-4-yl)pyridin-2-yl)imino)tetrahydro-1H-1-λ^6-thiophene 1-oxide], the IC50 amounted to 0.008 µM on ATR/ATRIP complex and 0.701 µM in assay [1].

As to `C[C@@H]1COCCN1c1cc(N=S(C)(C)=O)nc(-c2cc(Cl)nc3[nH]ccc23)c1` [Example 27, (R)-((6-(6-chloro-1H-pyrrolo[2,3-b]pyridin-4-yl)-4-(3-methylmorpholino)pyridin-2-yl)imino)dimethyl-λ^6-sulfanone], the IC50 came out at 0.03 µM against ATR/ATRIP complex and 0.66 µM in assay [1].

Turning to `Cc1nc2ccccc2n1-c1cc(N2CCOC[C@H]2C)cc(N=S(C)(C)=O)n1` [Example 28, (R)-dimethyl((6-(2-methyl-1H-benzo[d]imidazol-1-yl)-4-(3-methylmorpholino)pyridin-2-yl)imino)-λ^6-sulfanone], the values for the IC50 (against ATR/ATRIP complex; in assay [1]) were 0.024 µM and 10 µM, respectively.

Regarding `C[C@@H]1COCCN1c1cc(N=S(C)(C)=O)nc(-c2nccn2C)c1` [Example 31, (R)-dimethyl((6-(1-methyl-1H-imidazol-2-yl)-4-(3-methylmorpholino)pyridin-2-yl)imino)-λ^6-sulfanone], the IC50 on ATR/ATRIP complex stood at 3.47 µM; in assay [1], 3.06 µM.

Consider `C[C@@H]1COCCN1c1cc(N=S(C)(C)=O)nc(-c2cc(F)cc3[nH]ccc23)c1` [Example 32, (R)-((6-(6-fluoro-1H-indol-4-yl)-4-(3-methylmorpholino)pyridin-2-yl)imino)dimethyl-λ^6-sulfanone], for which the IC50 was determined as 0.004 µM at ATR/ATRIP complex and 0.195 µM in assay [1].

Turning to `C[C@@H]1COCCN1c1cc(N=S(C)(C)=O)nc(-c2ccnn2C)c1` [Example 33, (R)-dimethyl((6-(1-methyl-1H-pyrazol-5-yl)-4-(3-methylmorpholino)pyridin-2-yl)imino)-λ^6-sulfanone], the IC50 at ATR/ATRIP complex was found to be 1.85 µM; in assay [1], 0.615 µM.

With `C[C@@H]1COCCN1c1cc(N=S(C)(C)=O)nc(-c2cnn(C)c2)c1` [Example 34, (R)-dimethyl((6-(1-methyl-1H-pyrazol-4-yl)-4-(3-methylmorpholino)pyridin-2-yl)imino)-λ^6-sulfanone], the half-maximal inhibitory concentration (IC50) amounted to 3.44 µM against ATR/ATRIP complex and 10 µM in assay [1].

Take `Cc1nccn1-c1cc(N2CCOC[C@H]2C)cc(N=S(C)(C)=O)n1` [Example 39, (R)-dimethyl((6-(2-methyl-1H-imidazol-1-yl)-4-(3-methylmorpholino)pyridin-2-yl)imino)-λ^6-sulfanone]: the IC50 on ATR/ATRIP complex came to 3.47 µM; in assay [1], 3.06 µM.
